Data as given in patent US20240083857A1, “2-Methyl-Quinazolines” (Bayer Pharma Aktiengesellschaft, priority 2017, published 2024).
Read-outs that look alike come from different tables or passages of the source.

Experiments:
[1] = biological target: human SOS1 (loading of human K-Ras^G12C-GDP with fluorescent GTP-analog) (Homo sapiens, UniProt Q07889); test: Biochemical assay 3: K-Ras^G12C activation assay by hSOS1 (HTRF); details: for inhibition at 20 µM: read-out: Assay 3 (KRAS-Activation by SOS no GTP) activity expressed as % inhibition at 20 μM
[2] = biological target: human SOS1 (nucleotide exchange of K-Ras^G12C) (Homo sapiens, UniProt Q07889); test: Biochemical assay 2: K-Ras^G12C activation assay by hSOS1 at high GTP concentration (HTRF); details: for inhibition at 20 µM: read-out: Assay 2 (KRAS-Activation by SOS high GTP) activity expressed as % inhibition at 20 μM
[3] = E-notation values, unit inferred, read-out: Assay 3 (KRAS-Activation) IC50
[4] = E-notation values, unit inferred, 50 μM GTP, read-out: Assay 2 (KRAS-Activation, high GTP) IC50
[5] = high GTP, read-out: Assay 2 (KRAS-Activation by SOS high GTP) activity expressed as IC50
[6] = no GTP, read-out: Assay 3 (KRAS-Activation by SOS no GTP) activity expressed as IC50

## COc1cc2nc(C)nc(NC(C)c3ccc(-c4ccccc4CN(C)C)s3)c2cc1OC (single isomer, unassigned) [Example 390, N-[1-(5-{2-[(dimethylamino)methyl]phenyl}thiophen-2-yl)ethyl]-6,7-dimethoxy-2-methylquinazolin-4-amine]
[1]; [3]
  IC50: 12900 nM
[2]; [4]
  IC50: 6250 nM

## COc1cc2nc(C)nc(NC(C)c3ccc(-c4ccccc4CN(C)C)s3)c2cc1OC (single isomer, unassigned) [Example 391, N-[1-(5-{2-[(dimethylamino)methyl]phenyl}thiophen-2-yl)ethyl]-6,7-dimethoxy-2-methylquinazolin-4-amine]
[1]; [3]
  IC50: 37.9 nM
[2]; [4]
  IC50: 36.7 nM

## COc1cc2nc(C)nc(NC(C)c3ccc(=O)[nH]c3)c2cc1OC (single isomer, unassigned; enantiomer 1) [Example 227, 5-{1-[(6,7-dimethoxy-2-methylquinazolin-4-yl)amino]ethyl}pyridin-2(1H)-one, Enantiomer 1]
[1]; no GTP
  inhibition at 20 µM: 34%
[2]; high GTP
  inhibition at 20 µM: 24%

## COc1cc2nc(C)nc(NC(C)c3c(C)ccc4[nH]ncc34)c2cc1OC (centres unmarked) [Example 7, 6,7-dimethoxy-2-methyl-N-[1-(5-methyl-1H-indazol-4-yl)ethyl]quinazolin-4-amine]
[1]; no GTP
  inhibition at 20 µM: 33%
[2]; high GTP
  inhibition at 20 µM: 18%

## COc1cc2nc(C)nc(NC(C)c3ccc(-n4ccc(CCO)n4)o3)c2cc1OC (centres unmarked) [Example 226, 2-[1-(5-{1-[(6,7-dimethoxy-2-methylquinazolin-4-yl)amino]ethyl}furan-2-yl)-1H-pyrazol-3-yl]ethanol]
[1]; no GTP
  inhibition at 20 µM: 24%
[2]; high GTP
  inhibition at 20 µM: 37%

## COc1cc2nc(C)nc(NC(C)c3ccc(C4=CCCC4)s3)c2cc1OC (centres unmarked) [Example 231, N-{1-[5-(cyclopent-1-en-1-yl)thiophen-2-yl]ethyl}-6,7-dimethoxy-2-methylquinazolin-4-amine]
[1]; no GTP
  inhibition at 20 µM: 24%
[2]; high GTP
  inhibition at 20 µM: 53%

## COc1cc2nc(C)nc(NC(C)c3ccc(-c4ccc(CNC(=O)OC(C)(C)C)o4)s3)c2cc1OC (centres unmarked) [Example 236, tert-butyl {[5-(5-{1-[(6,7-dimethoxy-2-methylquinazolin-4-yl)amino]ethyl}thiophen-2-yl)furan-2-yl]methyl}carbamate]
[1]; no GTP
  inhibition at 20 µM: 17%
[2]; [5]
  IC50: 3820 nM

## COC(=O)c1cc(-c2ccc(C(C)Nc3nc(C)nc4cc(OC)c(OC)cc34)s2)nn1C (centres unmarked) [Example 237, methyl 3-(5-{1-[(6,7-dimethoxy-2-methylquinazolin-4-yl)amino]ethyl}thiophen-2-yl)-1-methyl-1H-pyrazole-5-carboxylate]
[1]; no GTP
  inhibition at 20 µM: 10%
[2]; high GTP
  inhibition at 20 µM: 32%

## COc1cc2nc(C)nc(NC(C)c3ccc(-c4ccc(F)cc4CNC(=O)c4cc5ccccc5[nH]4)s3)c2cc1OC (centres unmarked) [Example 296, N-[2-(5-{1-[(6,7-dimethoxy-2-methylquinazolin-4-yl)amino]ethyl}thiophen-2-yl)-5-fluorobenzyl]-1H-indole-2-carboxamide]
[1]; [6]
  IC50: 11800 nM
[2]; high GTP
  inhibition at 20 µM: 48%

## COc1cc2nc(C)nc(NC(C)c3ccc(-c4ccccc4CN4CCN(C(=O)OC(C)(C)C)CC4)s3)c2cc1OC (centres unmarked) [Example 306, tert-butyl 4-[2-(5-{1-[(6,7-dimethoxy-2-methylquinazolin-4-yl)amino]ethyl}thiophen-2-yl)benzyl]piperazine-1-carboxylate]
[1]; [6]
  IC50: 7940 nM
[2]; [5]
  IC50: 4200 nM

## COc1cc2nc(C)nc(NC(C)c3ccc(-c4ccccc4CNc4ccccc4)s3)c2cc1OC (centres unmarked) [Example 362, 6,7-dimethoxy-2-methyl-N-[1-(5-{2-[(phenylamino)methyl]phenyl}thiophen-2-yl)ethyl]quinazolin-4-amine]
[1]; no GTP
  inhibition at 20 µM: 30%
[2]; high GTP
  inhibition at 20 µM: 27%

## COCCNCc1ccccc1-c1ccc(C(C)Nc2nc(C)nc3cc(OC)c(OC)cc23)s1 (centres unmarked) [Example 369, 6,7-dimethoxy-N-{1-[5-(2-{[(2-methoxyethyl)amino]methyl}phenyl)thiophen-2-yl]ethyl}-2-methylquinazolin-4-amine]
[1]; [3]
  IC50: 169 nM
[2]; [4]
  IC50: 152 nM

## COc1cc2nc(C)nc(NC(C)c3ccc(-c4ccccc4CNC4CC4)s3)c2cc1OC (centres unmarked) [Example 370, N-[1-(5-{2-[(cyclopropylamino)methyl]phenyl}thiophen-2-yl)ethyl]-6,7-dimethoxy-2-methylquinazolin-4-amine]
[1]; [3]
  IC50: 363 nM
[2]; [4]
  IC50: 352 nM

## COC(=O)c1ccc2nc(C)nc(N[C@H](C)c3cccc(Cl)c3)c2c1 [Example 371, methyl 4-{[(1R)-1-(3-chlorophenyl)ethyl]amino}-2-methylquinazoline-6-carboxylate]
[1]; [3]
  IC50: 3350 nM
[2]; [4]
  IC50: 2420 nM

## Cc1nc(N[C@H](C)c2cccc(Cl)c2)c2cc(CO)ccc2n1 [Example 373, (4-{[(1R)-1-(3-chlorophenyl)ethyl]amino}-2-methylquinazolin-6-yl)methanol]
[1]; [3]
  IC50: 9210 nM
[2]; [4]
  IC50: 6200 nM

## COc1cc2nc(C)nc(NC(C)c3ccc(-c4ccccc4C(O)c4ccccc4)s3)c2cc1OC (centres unmarked) [Example 374, [2-(5-{1-[(6,7-dimethoxy-2-methylquinazolin-4-yl)amino]ethyl}thiophen-2-yl)-phenyl](phenyl)methanol]
[1]; [3]
  IC50: 6500 nM
[2]; [4]
  IC50: 2550 nM

## COc1cc2nc(C)nc(NC(C)c3ccc(-c4ccccc4C(O)Cc4ccccc4)s3)c2cc1OC (centres unmarked) [Example 376, 1-[2-(5-{1-[(6,7-dimethoxy-2-methylquinazolin-4-yl)amino]ethyl}thiophen-2-yl)phenyl]-2-phenylethanol]
[1]; [3]
  IC50: 17900 nM
[2]; [4]
  IC50: 18400 nM

## CCCCC(O)c1ccccc1-c1ccc(C(C)Nc2nc(C)nc3cc(OC)c(OC)cc23)s1 (centres unmarked) [Example 377, 1-[2-(5-{1-[(6,7-dimethoxy-2-methylquinazolin-4-yl)amino]ethyl}thiophen-2-yl)phenyl]pentan-1-ol]
[1]; [3]
  IC50: 15100 nM
[2]; [4]
  IC50: 9750 nM

## C#CC(O)c1ccccc1-c1ccc(C(C)Nc2nc(C)nc3cc(OC)c(OC)cc23)s1 (centres unmarked) [Example 378, 1-[2-(5-{1-[(6,7-dimethoxy-2-methylquinazolin-4-yl)amino]ethyl}thiophen-2-yl)phenyl]prop-2-yn-1-ol]
[1]; [3]
  IC50: 1450 nM
[2]; [4]
  IC50: 1050 nM

## COc1cc2nc(C)nc(NC(C)c3ccc(-c4ccccc4C(O)C(C)C)s3)c2cc1OC (centres unmarked) [Example 379, 1-[2-(5-{1-[(6,7-dimethoxy-2-methylquinazolin-4-yl)amino]ethyl}thiophen-2-yl)phenyl]-2-methylpropan-1-ol]
[1]; [3]
  IC50: 1630 nM
[2]; [4]
  IC50: 1350 nM

## COc1cc2nc(C)nc(NC(C)c3ccc(-c4ccccc4C(O)C(F)(F)F)s3)c2cc1OC (centres unmarked) [Example 380, 1-[2-(5-{1-[(6,7-dimethoxy-2-methylquinazolin-4-yl)amino]ethyl}thiophen-2-yl)phenyl]-2,2,2-trifluoroethanol]
[1]; [3]
  IC50: 2740 nM
[2]; [4]
  IC50: 1600 nM

## COc1cc2nc(C)nc(NC(C)c3cc(C)c(-c4cnc5n4CCC5)s3)c2cc1OC (centres unmarked) [Example 381, N-{1-[5-(6,7-dihydro-5H-pyrrolo[1,2-a]imidazol-3-yl)-4-methylthiophen-2-yl]ethyl}-6,7-dimethoxy-2-methylquinazolin-4-amine]
[1]; [3]
  IC50: 2330 nM
[2]; [4]
  IC50: 1900 nM

## COc1cc2nc(C)nc(NC(C)c3ccc(-c4ccc(F)cc4CNC(=O)CO)s3)c2cc1OC (centres unmarked) [Example 382, N-[2-(5-{1-[(6,7-dimethoxy-2-methylquinazolin-4-yl)amino]ethyl}thiophen-2-yl)-5-fluorobenzyl]-2-hydroxyacetamide]
[1]; [3]
  IC50: 748 nM
[2]; [4]
  IC50: 931 nM

## COCC(=O)NCc1cc(F)ccc1-c1ccc(C(C)Nc2nc(C)nc3cc(OC)c(OC)cc23)s1 (centres unmarked) [Example 383, N-[2-(5-{1-[(6,7-dimethoxy-2-methylquinazolin-4-yl)amino]ethyl}thiophen-2-yl)-5-fluorobenzyl]-2-methoxyacetamide]
[1]; [3]
  IC50: 5110 nM
[2]; [4]
  IC50: 3620 nM

## COc1cc2nc(C)nc(NC(C)c3ccc(-c4cc(Cl)ccc4CNC(=O)OC(C)(C)C)s3)c2cc1OC (centres unmarked) [Example 387, tert-butyl [4-chloro-2-(5-{1-[(6,7-dimethoxy-2-methylquinazolin-4-yl)amino]ethyl}-thiophen-2-yl)benzyl]carbamate]
[1]; [3]
  IC50: 8320 nM
[2]; [4]
  IC50: 1660 nM

## COc1cc2nc(C)nc(N[C@H](C)c3cccc(-c4ccnc(O)c4)c3)c2cc1OC [Example 388, 4-(3-{(1R)-1-[(6,7-dimethoxy-2-methylquinazolin-4-yl)amino]ethyl}phenyl)pyridin-2-ol]
[1]; [3]
  IC50: 757 nM
[2]; [4]
  IC50: 801 nM

## COc1cc2nc(C)nc(NC(C)c3cccc(OCc4ccccc4)c3)c2cc1OC (centres unmarked) [Example 389, N-{1-[3-(benzyloxy)phenyl]ethyl}-6,7-dimethoxy-2-methylquinazolin-4-amine]
[1]; [3]
  IC50: 16900 nM
[2]; [4]
  IC50: 14900 nM

## Cc1nc(N[C@H](C)c2cccc(Cl)c2)c2cc(C(C)(C)O)ccc2n1 [Example 392, 2-(4-{[(1R)-1-(3-chlorophenyl)ethyl]amino}-2-methylquinazolin-6-yl)propan-2-ol]
[1]; [3]
  IC50: 1520 nM
[2]; [4]
  IC50: 1190 nM

## COc1cc2nc(C)nc(N[C@H](C)c3cccc(-c4ccccc4CC(N)=O)c3)c2cc1OC [Example 393, 2-(3′-{(1R)-1-[(6,7-dimethoxy-2-methylquinazolin-4-yl)amno]ethyl}biphenyl-2-yl)acetamide]
[1]; [3]
  IC50: 1040 nM
[2]; [4]
  IC50: 975 nM

## COc1cc2nc(C)nc(NC(C)c3ccc(-c4ccccc4CC(N)=O)s3)c2cc1OC (centres unmarked) [Example 394, 2-[2-(5-{1-[(6,7-dimethoxy-2-methylquinazolin-4-yl)amino]ethyl}thiophen-2-yl)phenyl]acetamide]
[1]; [3]
  IC50: 2290 nM
[2]; [4]
  IC50: 1620 nM

## COc1cc2nc(C)nc(NC(C)c3ccc(-c4ccc(O)nc4)s3)c2cc1OC (centres unmarked) [Example 395, 5-(5-{1-[(6,7-dimethoxy-2-methylquinazolin-4-yl)amino]ethyl}thiophen-2-yl)pyridin-2-ol]
[1]; [3]
  IC50: 1020 nM
[2]; [4]
  IC50: 1060 nM
